Measurements as given in patent US5576177A, “Bioassay for reverse transcriptase inhibitors” (St. Jude Children's Research Hospital, priority 1994, dated 1996).
Read-outs that look alike come from different tables or passages of the source.

What was measured:
[1] = biological target: HIV-1 reverse transcriptase (HIV-1 M:B_HXB2R, UniProt P04585); test: Inhibition of HIV-1 reverse transcriptase (TTP incorporation, poly[rA]-oligo[dT]12-18 primer-template); format: biochemical; settings: for inhibition of reverse transcriptase activity (effect on reaction kinetics): at concentrations of up to 10,000 fmols
Method: (§1) Reverse transcriptase assays were performed using substantially purified HIV-1 reverse transcriptase and poly[rA]-oligo[dT]12-18 as primer-template. The reactions were carried out in a total volume of 10 μl; a 4.5 μl volume of the sample was mixed with an equal volume of a reaction mixture to provide a final concentration of 50 mM Tris (pH 8.5), 6 mM MgCl2, 10 mM dithiothreitol (DTT), 2.0 μg bovine serum albumin (BSA), 0.5 μCi TTP, 80 mM KCl, and 0.05% Triton X-100. The reaction was initiated by the addition of 1.0 μl of HIV reverse transcriptase (containing~1 ng protein; from American BioTechnology,Cambridge, Mass.; Cat. No. 26001). After 1 hour incubation at 37° C., the reaction was stopped by the addition of 5.0 μof stop buffer (50 mM EDTA+3% SDS). The reverse transcriptase products (polymerization products) were separated from the unincorporated label by chromatography on Sephadex G-25 (superfine) columns. The fractions corresponding to the void volume were collected and counted by scintillation counting.

[2] = test system: peripheral blood mononuclear cells; settings: AIDS patients receiving 300 mg oral zidovudine; cited from earlier work
[3] = test system: peripheral blood mononuclear cells; test: Intracellular zidovudine triphosphate in peripheral blood mononuclear cells of HIV-infected volunteers (reverse transcriptase bioassay); format: in vivo, human
Method: Peripheral blood mononuclear cell isolation. Heparinized blood from normal human volunteers or asymptomatic HIV seropositive individuals was diluted 1:1 with HBSS, layered onto LSM (Ficoll hypaque) and then separated by centrifugation for 30 min at 400×g. The mononuclear cell layer was removed, washed once with growth media, counted, and pelleted by centrifugation. The cells were then resuspended in growth medium (RPMI containing 10% fetal calf serum) and the residual erythrocytes lysed by the addition of 3 volumes of cold water for 30 seconds. Erythrocyte lysis was stopped by the addition of 1 volume of 0.6M sodium chloride, and the mononuclear cells were pelleted by centrifugation.
Uncultured peripheral blood mononuclear cells from zidovudine-treated patients were resuspended in 1 ml of media and transferred to a 1.5 ml centrifuge tube, spun 1 min at 14,000 rpm, the media removed, and pulsed again to allow removal of any residual media. The cells were extracted for at least 15 min with 200 μl of ice cold 70% methanol per 1×10^7 cells. The cell debris was removed by centrifugation for 15 min at 14,000 rpm and the supernate stored in -20° C. until required for analysis. Prior to use, the extracts were dried under vacuum and resuspended in 50 μl of 5 mM Tris-HCl buffer (pH 8.5); extracts from 0.5×10^7 CEM cells or 1×10^7 cultured peripheral blood mononuclear cells were reconstituted in 200 μl buffer.
as §1
The zidovudine-free peripheral blood mononuclear cells from each individual at baseline (untreated) served as the cell background to construct the standard curve for zidovudine triphosphate determination.
(§2) Individuals in this study were HIV-infected individuals recruited from an area clinic. […] CD4 and CD8 cell counts were determined from baseline samples.

[4] = test system: CEM cells; test: Zidovudine triphosphate level in CEM cells by HPLC-radioactive method; format: in vitro ADME; settings: 4 hr incubation with 1 μM zidovudine, n = 1
Method: (§3) Preparation of cell extracts. […] The cell pellets were resuspended in 1 ml of residual media and layered onto 150 μl of nyosil oil, and spun through the oil. The media above the oil layer was removed, and any residual media was removed by rinsing the area above the oil layer by two gentle water washes. Finally, the oil was removed and the cells were extracted with 70% methanol+15 mM Tris-HCl buffer (pH 7.4) for at least 15 min on ice. The debris was removed by centrifugation and the samples stored at -20° C. until required.
(§4) One fraction was analyzed by HPLC and zidovudine metabolites were quantitated by usual radioisotopic methods.
(§5) Buffers used in the separation procedure were A--0.005M ammonium phosphate at pH 4.0+10% methanol and B--0.7M ammonium phosphate at pH 4.6+10% methanol.
(§6) Cell extracts were analyzed and quantified by using the different assays as described in Materials and Methods. Statistical parameters represent the standard deviation of the mean (δ) of three determinations of parallel samples.

[5] = test system: CEM cells; test: Zidovudine triphosphate level in CEM cells by reverse transcriptase bioassay; format: in vitro ADME; settings: 4 hr incubation with 1 μM zidovudine, n = 3
Method: as §3
Reverse transcriptase assays were performed using substantially purified HIV-1 reverse transcriptase and poly[rA]-oligo[dT]12-18 as primer-template. The reactions were carried out in a total volume of 10 μl; a 4.5 μl volume of the sample was mixed with an equal volume of a reaction mixture to provide a final concentration of 50 mM Tris (pH 8.5), 6 mM MgCl2, 10 mM dithiothreitol (DTT), 2.0 μg bovine serum albumin (BSA), 0.5 μCi TTP, 80 mM KCl, and 0.05% Triton X-100. […] The fractions corresponding to the void volume were collected and counted by scintillation counting.
as §4
Cell extracts were analyzed and quantified by using the different assays as described in Materials and Methods. […]

[6] = test system: human immunodeficiency virus reverse transcriptase; settings: cited from earlier work
[7] = test system: CEM cells; test: Zidovudine triphosphate level in CEM cells by HPLC-RIA; format: in vitro ADME; settings: 4 hr incubation with 1 μM zidovudine, n = 3
Method: as §4, §6
CEM cells were extracted in the same manner as cultured peripheral blood mononuclear cell samples (see Materials and Methods). […] The samples were cleaned up using Waters Sep-pak C-18 cartridges. The cartridges were conditioned with 10% methanol and then rinsed with water. Each sample was applied separately and eluted with 50% methanol. The samples were vacuum desiccated to a volume under 500 μl and further purified with a 250 mm Whatman ODS-3 column. Buffer A was 35% methanol and buffer B was 50% methanol. The gradient was 15 min at 0% B followed by 20 min at 100% B with a flow rate of 0.5 ml/min and fractions collected every min. The fractions containing zidovudine were pooled and vacuum desiccated to dryness. […] The antibody was diluted 1:3 and preincubated with the sample 2 hours.

[8] = test system: peripheral blood mononuclear cells; test: Phosphorylation of zidovudine in peripheral blood mononuclear cells in vitro; format: in vitro ADME, human; settings: proliferating compared to resting cells; 1 μM [^3 H]zidovudine
Method: Culture of human peripheral blood mononuclear cells. The peripheral blood mononuclear cells were suspended in growth media and transferred to plastic tissue culture flasks. The monocyte/macrophage cells were allowed to adhere to the flask for at least 60 min after which the non-adherent cells comprises primarily of lymphocytes were transferred to a new flask. The cells were stimulated by addition of 5 μg/ml of PHA-P and 10 units/ml of IL-2 and incubated for 72 hours at 37° C. prior to use. Fresh media was added every 24 hours to maintain the IL-2 concentration. If quiescent cells were required the PHA-P and IL-2 were omitted and the cells were used the following day.
as §3, §5

[9] = Plasma zidovudine concentrations and pharmacokinetics in HIV-infected volunteers (RIA); format: in vivo, human; settings: for concentration at 1 h: po; for AUC: read-out: AUC (area under the curve), median; for half-life: read-out: t1/2 (half life), median (converted)
Method: Pharmacokinetic studies in patients. To assess the utility and sensitivity of the bioassay of the invention in patients, a clinical study was performed. The study was approved by the Institutional Review Board of St. Jude Children's Research Hospital and informed consent was obtained from each individual according to institutional procedures.
as §2
Prior distributions for the parameters were assumed to be log normally distributed with known but independent variances (i.e., no parameter covariance) and were taken from previous studies in similar patients (Flether et al., Pharmacotherapy 12:429-434 (1992)).
Plasma samples were heat inactivated at 56° C. for 4 hours prior to assay. The samples were diluted to obtain values within a standard curve range of 10-200 ng/ml with 200 μl of sample. […] Five-hundred μl of a secondary antibody precipitating complex was added and incubated for 20 min at room temperature. The resultant mixtures were centrifuged, the supernate decanted, and the precipitate counted using an LKB gamma counter connected to an IBM PC computer with an RIA Calif. LC software program.

[10] = 10 to 500 fmol, no cell extract
[11] = spiked with extract of peripheral blood mononuclear cells (about 10^6 cells)
[12] = human, plasma, 100 mg single oral dose
[13] = human, plasma, 500 mg single oral dose

Cc1cn([C@H]2C[C@H](O)[C@@H](COP(=O)(O)O)O2)c(=O)[nH]c1=O [thymidine monophosphate (TMP), thymidine monophosphate]
inhibition of reverse transcriptase activity (effect on reaction kinetics) [1]: did not affect the reaction kinetics

Cc1cn([C@H]2C[C@H](N=[N+]=[N-])[C@@H](CO[P@](=O)(O)O[P@](=O)(O)OP(=O)(O)O)O2)c(=O)[nH]c1=O [zidovudine triphosphate]
zidovudine triphosphate level relative to the patent's results [2]: 10 -fold higher
proportion of median plateau values ([3]; 500 mg vs 100 mg): 1.7
time course of zidovudine triphosphate values ([3]; 1 to 6 hours after zidovudine): increased from 1 to 2 hours (Table 3 (below)) and then remained at a plateau value through 6 hours
measurability of zidovudine triphosphate after zidovudine administration ([3]; 100 or 500 mg zidovudine): could be measured in all 12 volunteers
Median Ratio (500/100) ([3]; 1 h): 8.4
Median Ratio (500/100) ([3]; 2 h): 1.6
Median Ratio (500/100) ([3]; 4 h): 1.5
Median Ratio (500/100) ([3]; 6 h): 2.1
% CV range of intracellular zidovudine triphosphate ([3]; after 100 or 500 mg zidovudine): 52-157%
Zidovudine Triphosphate [4]: 1.42 pmol/10^6 cells
Zidovudine Triphosphate [5]: 1.39 ± 0.17 pmol/10^6 cells
inhibition of HIV reverse transcriptase [6]: potent inhibitor
reverse transcriptase chain termination [6]: causes reverse transcriptase chain termination
coefficient of regression of linear inhibition kinetics [1, 10]: 0.99
inhibition kinetics of HIV reverse transcriptase [1, 10]: linear inhibition kinetics
R of linear inhibition kinetics [1, 11]: > 0.98
inhibition kinetics of HIV reverse transcriptase [1, 11]: good linear kinetics
Zidovudine Triphosphate [7]: 1.50 ± 0.65 pmol/10^6 cells

Cc1cn([C@H]2C[C@H](N=[N+]=[N-])[C@@H](CO)O2)c(=O)[nH]c1=O [zidovudine, 3'-azido-3'-deoxythymidine]
phosphorylation rate of zidovudine [8]: high phosphorylation rate
Plasma Zidovudine ([9]; 100 mg single oral dose, 6 h, #ND = plasma zidovudine concentration below standard curve in 4 of 5 patients): ND#
difference of CLo between dose groups ([9]; 100 mg vs 500 mg, p>0.2 by Mann-Whitney U test): not significantly different
concentration at 1 h ([9]; human, plasma, 100 mg dose): 1.79 µM
concentration at 1 h ([9]; human, plasma, 500 mg dose): 6.3 µM
concentration at 2 h [9, 12]: 760 nM
concentration at 4 h [9, 12]: 260 nM
AUC [9, 12]: 1200 ng·h/mL
half-life [9, 12]: 77.4 min
concentration at 2 h [9, 13]: 3000 nM
concentration at 4 h [9, 13]: 900 nM
concentration at 6 h ([9]; human, plasma, 500 mg single oral dose, 6 h): 360 nM
AUC [9, 13]: 4200 ng·h/mL
half-life [9, 13]: 64.2 min

Cc1cn([C@H]2C[C@H](N=[N+]=[N-])[C@@H](COP(=O)(O)O)O2)c(=O)[nH]c1=O [zidovudine-MP]
inhibition of reverse transcriptase activity (effect on reaction kinetics) [1]: did not affect the reaction kinetics
